Values quoted from earlier work as cited in US20120294924A1, “Peptide-Lipid Conjugates And Uses Thereof” (priority 2011, published 2012).
No end group written: not given here.

Details: qualitative statement, Li et al., Biochimica et Biophysica Acta 1768:411-418, 2007

binding to LPS: bind to LPS
Sequence: HAEHKVKIGVEQKYGQFPQGTEVTYTCSGNYFLM [Sushi-3, 34mer peptide from a Sushi domain of horseshoe crab Factor C]
